# Results reported in US20260053811A1, “METHODS OF TREATING HYPERTENSION IN OBESE SUBJECTS” (Mineralys Therapeutics, Inc., priority 2022, published 2026).
# Test system: hypertensive subjects
# Assay: Seated automated office blood pressure (AOBP) in randomized, placebo-controlled, dose-ranging study
# Type: in vivo, human
# Conditions: Part 1, 50 mg QD
# Description: A randomized, double-blinded, placebo-controlled, dose-ranging, multicenter study was conducted to evaluate the effect of orally administered Compound A HBr on blood pressure for the treatment of hypertension in male and female subjects ≥18 years of age.
# The study consists of two parts. For enrollment into Part 1 of the study, a subject's value of plasma renin activity (PRA) must be ≤1 ng/mL/h based on morning measurement. If the value of PRA >1 ng/mL/h based on morning measurement, then subjects may be eligible to enter Part 2 of the study.
# For Part 1, 163 enrolled subjects ≥18 years of age were randomized into 6 equal treatment groups (1:1:1:1:1:1) to 12.5 mg BID, 25 mg BID, 12.5 mg QD, 50 mg QD, 100 mg QD, or placebo. After a review of interim clinical data, the 2 lowest dose levels (12.5 mg QD and 12.5 mg BID) were stopped for future randomization due to a lack of consistent meaningful reduction of blood pressure, but the patients randomized to that point remained in the study through completion. Thus, after the review of interim clinical data, subjects were randomized into 4 equal treatment groups (1:1:1:1) to 25 mg BID, 50 mg QD, 100 mg QD, or placebo.
# For Part 2, 36 enrolled subjects ≥18 years of age were randomized (5:1) to either 100 mg QD Compound A HBr or placebo such that the Compound A HBr treatment group consisted of approximately 30 subjects and the placebo treatment group will consist of approximately 6 subjects.
# Subjects orally administered the assigned study drug (Compound A HBr or placebo) according to the assigned dosing regimen for 8 weeks beginning on Study Day 1. All subjects in Part 1 (regardless of dosing group) received BID dosing to preserve the integrity of the blind; active drug is administered as the morning dose for all QD dose groups. Subjects returned to the research facility or were seen by the clinical investigator or approved home health care professional at the end of Study Weeks 1, 2, 3, 4, 5, 6, 7, and 8 (±2 days) for protocol-defined efficacy and safety assessments and procedures, assessment of adverse events (AEs), and confirmation of compliance with study drug usage. Subjects also completed a telephone visit and blood pressure (BP) check at home approximately 3 days post last dose of study drug. Subjects attended up to 14 full clinic visits, including a pre-Screening visit, a Screening/start of Placebo Run-in visit, a second visit during Placebo Run-in, a clinic visit to initiate the ABPM procedure, a Randomization visit, 8 weekly visits during double-blind treatment, and an end-of-study visit scheduled 4 weeks after the last study treatment for final efficacy and safety assessments.
# An automated oscillometric sphygmomanometer device was used to measure the subjects' systolic and diastolic blood pressure in office after approximately 5 minutes of rest in the seated position.
# The primary endpoint is the change in office-measured (mean of last 2 of 5 unattended measurements using an automated oscillometric sphygmomanometer device after approximately 5 minutes of rest in the seated position) systolic blood pressure (SBP) from baseline to the end of Study Week 8.
# Secondary endpoints of this study were: • (a) Change in 24-hour ambulatory blood pressure monitoring (ABPM) parameters (systolic and diastolic) from baseline to the end of Study Week 7. • (b) Change in office-measured SBP from baseline to the end of Study Weeks 1, 2, 3, 4, 5, 6, and 7. • (c) Change in office-measured diastolic blood pressure (DBP) from baseline to the end of Study Weeks 1, 2, 3, 4, 5, 6, 7, and 8. • (d) Proportion of subjects who achieve office-measured BP of ≤130/80 mm Hg by the end of Study Week 8.
structure (smiles),measurement,setting,value
CC(=O)N[C@H]1CC[C@H](NC(=O)CN2CCN(c3nncc(-c4ccc(C)cc4)n3)CC2)CC1 [Compound A HBr],Mean (SD) Change from Baseline at Week 8 in Automated Office-Measured Systolic Blood Pressure,ACEi/ARB Yes,−15.75 (17.46) mmHg
same,Mean (SD) Automated Office-Measured Diastolic Blood Pressure at Wk 8,ACEi/ARBs No,78.75 (13.72) mmHg
same,Mean (SD) Change from Baseline at Week 8 in Automated Office-Measured Diastolic Blood Pressure,ACEi/ARBs No,−4.44 (10.67) mmHg
same,Mean (SD) Automated Office-Measured Diastolic Blood Pressure at Wk 8,ACEi/ARBs Yes,76.05 (8.09) mmHg
same,Mean (SD) Change from Baseline at Week 8 in Automated Office-Measured Diastolic Blood Pressure,ACEi/ARBs Yes,−9.50 (8.30) mmHg
same,Mean (SD) Automated Office-Measured Diastolic Blood Pressure at Wk 8,AHTs 2,76.40 (10.12) mmHg
same,Mean (SD) Automated Office-Measured Systolic Blood Pressure at Wk 8,AHTs 2,129.60 (13.98) mmHg
same,Mean (SD) Change from Baseline at Week 8 in Automated Office-Measured Diastolic Blood Pressure,AHTs 2,−7.03 (9.50) mmHg
same,Mean (SD) Change from Baseline at Week 8 in Automated Office-Measured Systolic Blood Pressure,AHTs 2,−10.28 (15.34) mmHg
same,Mean (SD) Automated Office-Measured Diastolic Blood Pressure at Wk 8,AHTs ≥3,77.88 (9.58) mmHg
same,Mean (SD) Automated Office-Measured Systolic Blood Pressure at Wk 8,AHTs ≥3,126.25 (13.56) mmHg
same,Mean (SD) Change from Baseline at Week 8 in Automated Office-Measured Diastolic Blood Pressure,AHTs ≥3,−10.63 (8.12) mmHg
same,Mean (SD) Change from Baseline at Week 8 in Automated Office-Measured Systolic Blood Pressure,AHTs ≥3,−20.44 (20.36) mmHg
same,Mean (SD) Automated Office-Measured Diastolic Blood Pressure at Wk 8,Age 65-79 yr,72.54 (8.04) mmHg
same,Mean (SD) Automated Office-Measured Systolic Blood Pressure at Wk 8,Age 65-79 yr,127.92 (13.82) mmHg
same,Mean (SD) Change from Baseline at Week 8 in Automated Office-Measured Diastolic Blood Pressure,Age 65-79 yr,−8.88 (9.23) mmHg
same,Mean (SD) Change from Baseline at Week 8 in Automated Office-Measured Systolic Blood Pressure,Age 65-79 yr,−15.15 (18.27) mmHg
same,Mean (SD) Automated Office-Measured Diastolic Blood Pressure at Wk 8,Age <65 yr,80.53 (9.93) mmHg
same,Mean (SD) Automated Office-Measured Systolic Blood Pressure at Wk 8,Age <65 yr,129.27 (14.04) mmHg
same,Mean (SD) Change from Baseline at Week 8 in Automated Office-Measured Diastolic Blood Pressure,Age <65 yr,−7.33 (9.30) mmHg
same,Mean (SD) Change from Baseline at Week 8 in Automated Office-Measured Systolic Blood Pressure,Age <65 yr,−11.47 (16.60) mmHg
same,Mean (SD) Automated Office-Measured Diastolic Blood Pressure at Wk 8,BMI 25−30 kg/m^2,80.27 (6.29) mmHg
same,Mean (SD) Change from Baseline at Week 8 in Automated Office-Measured Diastolic Blood Pressure,BMI 25−30 kg/m^2,−4.50 (8.75) mmHg
same,Mean (SD) Automated Office-Measured Diastolic Blood Pressure at Wk 8,BMI <25 kg/m^2,61.00 (NE) mmHg
same,Mean (SD) Change from Baseline at Week 8 in Automated Office-Measured Diastolic Blood Pressure,BMI <25 kg/m^2,−24.50 (NE) mmHg
same,Mean (SD) Automated Office-Measured Diastolic Blood Pressure at Wk 8,BMI >30 kg/m^2,76.07 (11.02) mmHg
same,Mean (SD) Change from Baseline at Week 8 in Automated Office-Measured Diastolic Blood Pressure,BMI >30 kg/m^2,−9.67 (8.59) mmHg
same,Mean (SD) Automated Office-Measured Systolic Blood Pressure at Wk 8,BMI at baseline 25-30 kg/m^2,136.64 (14.70) mmHg
same,Mean (SD) Change from Baseline at Week 8 in Automated Office-Measured Systolic Blood Pressure,BMI at baseline 25-30 kg/m^2,−2.45 (15.21) mmHg
same,Mean (SD) Automated Office-Measured Systolic Blood Pressure at Wk 8,BMI at baseline <25 kg/m^2,118.00 (NE) mmHg
same,Mean (SD) Change from Baseline at Week 8 in Automated Office-Measured Systolic Blood Pressure,BMI at baseline <25 kg/m^2,−38.00 (NE) mmHg
same,Mean (SD) Automated Office-Measured Systolic Blood Pressure at Wk 8,BMI at baseline >30 kg/m^2,124.13 (10.98) mmHg
same,Mean (SD) Change from Baseline at Week 8 in Automated Office-Measured Systolic Blood Pressure,BMI at baseline >30 kg/m^2,−19.27 (15.13) mmHg
same,Mean (SD) Automated Office-Measured Diastolic Blood Pressure at Wk 8,Race Black or AA,83.25 (8.88) mmHg
same,Mean (SD) Automated Office-Measured Systolic Blood Pressure at Wk 8,Race Black or AA,130.38 (14.12) mmHg
same,Mean (SD) Change from Baseline at Week 8 in Automated Office-Measured Diastolic Blood Pressure,Race Black or AA,−4.88 (8.84) mmHg
same,Mean (SD) Change from Baseline at Week 8 in Automated Office-Measured Systolic Blood Pressure,Race Black or AA,−12.31 (18.13) mmHg
same,Mean (SD) Automated Office-Measured Diastolic Blood Pressure at Wk 8,Race Other,74.25 (9.14) mmHg
same,Mean (SD) Automated Office-Measured Systolic Blood Pressure at Wk 8,Race Other,127.95 (13.83) mmHg
same,Mean (SD) Change from Baseline at Week 8 in Automated Office-Measured Diastolic Blood Pressure,Race Other,−9.33 (9.15) mmHg
same,Mean (SD) Change from Baseline at Week 8 in Automated Office-Measured Systolic Blood Pressure,Race Other,−13.53 (17.25) mmHg
same,Mean (SD) Automated Office-Measured Diastolic Blood Pressure at Wk 8,Seated SBP Tertile High,73.25 (8.33) mmHg
same,Mean (SD) Change from Baseline at Week 8 in Automated Office-Measured Diastolic Blood Pressure,Seated SBP Tertile High,−13.94 (7.82) mmHg
same,Mean (SD) Automated Office-Measured Diastolic Blood Pressure at Wk 8,Seated SBP Tertile Low,81.08 (9.65) mmHg
same,Mean (SD) Change from Baseline at Week 8 in Automated Office-Measured Diastolic Blood Pressure,Seated SBP Tertile Low,2.42 (8.22) mmHg
same,Mean (SD) Automated Office-Measured Diastolic Blood Pressure at Wk 8,Seated SBP Tertile Middle,74.00 (10.06) mmHg
